Test results from PubChem BioAssay AID1259407 (Chemical Carcinogenesis Research Information System (CCRIS), 2018).
The source made the active and inactive calls. No rule for the calls is given here.

Tested on: CCRIS mutagenicity, Ames/micronucleus/aberration tests
Test: CCRIS mutagenicity studies

Measured: mutagenic call

CS(C)=O
inactive: End Point: IN VITRO CHROMOSOMAL ABERRATIONS, Test System: CHO-LB CELLS, Metabolic Activation: NONE inactive; negative | End Point: IN VITRO CHROMOSOMAL ABERRATIONS, Test System: CHO-LB CELLS, Metabolic Activation: RAT, LIVER, S-9, AROCLOR 1254 inactive; negative | Test System: AMES SALMONELLA TYPHIMURIUM, Strain/Indicator: TA97, Metabolic Activation: HAMSTER, LIVER, S-9, AROCLOR 1254 (10 OR 30%), Method: PREINCUBATION inactive; negative | Test System: AMES SALMONELLA TYPHIMURIUM, Strain/Indicator: TA97, Metabolic Activation: NONE, Method: PREINCUBATION inactive; negative | Test System: AMES SALMONELLA TYPHIMURIUM, Strain/Indicator: TA97, Metabolic Activation: NONE, Method: PREINCUBATION (20 MIN) inactive; negative | Test System: AMES SALMONELLA TYPHIMURIUM, Strain/Indicator: TA97, Metabolic Activation: NONE, Method: STANDARD PLATE inactive; negative | Test System: AMES SALMONELLA TYPHIMURIUM, Strain/Indicator: TA97, Metabolic Activation: RAT, LIVER, S-9, AROCLOR 1254 (10 OR 30%), Method: PREINCUBATION inactive; negative | Test System: AMES SALMONELLA TYPHIMURIUM, Strain/Indicator: TA97, Metabolic Activation: RAT, LIVER, S-9, AROCLOR 1254, Method: STANDARD PLATE inactive; negative | Test System: AMES SALMONELLA TYPHIMURIUM, Strain/Indicator: TA97, Metabolic Activation: RAT, LIVER, S-9, PHENOBARBITAL AND 5,6-BENZOFLAVONE, Method: PREINCUBATION (20 MIN) inactive; negative | Test System: AMES SALMONELLA TYPHIMURIUM, Strain/Indicator: TA98, Metabolic Activation: HAMSTER, LIVER, S-9, AROCLOR 1254 (10 OR 30%), Method: PREINCUBATION inactive; negative | Test System: AMES SALMONELLA TYPHIMURIUM, Strain/Indicator: TA98, Metabolic Activation: NONE, Method: FLUCTUATION (MICROTITER) inactive; negative | Test System: AMES SALMONELLA TYPHIMURIUM, Strain/Indicator: TA98, Metabolic Activation: NONE, Method: PREINCUBATION inactive; negative | Test System: AMES SALMONELLA TYPHIMURIUM, Strain/Indicator: TA98, Metabolic Activation: NONE, Method: PREINCUBATION (20 MIN) inactive; negative | Test System: AMES SALMONELLA TYPHIMURIUM, Strain/Indicator: TA98, Metabolic Activation: NONE, Method: STANDARD PLATE inactive; negative | Test System: AMES SALMONELLA TYPHIMURIUM, Strain/Indicator: TA98, Metabolic Activation: RAT LIVER S-9, AROCLOR 1254, Method: FLUCTUATION (MICROTITER) inactive; negative | Test System: AMES SALMONELLA TYPHIMURIUM, Strain/Indicator: TA98, Metabolic Activation: RAT, LIVER, S-9, AROCLOR 1254 (10 OR 30%), Method: PREINCUBATION inactive; negative | Test System: AMES SALMONELLA TYPHIMURIUM, Strain/Indicator: TA98, Metabolic Activation: RAT, LIVER, S-9, AROCLOR 1254, Method: STANDARD PLATE inactive; negative | Test System: AMES SALMONELLA TYPHIMURIUM, Strain/Indicator: TA98, Metabolic Activation: RAT, LIVER, S-9, PHENOBARBITAL AND 5,6-BENZOFLAVONE, Method: PREINCUBATION (20 MIN) inactive; negative | Test System: AMES SALMONELLA TYPHIMURIUM, Strain/Indicator: TA100, Metabolic Activation: HAMSTER, LIVER, S-9, AROCLOR 1254 (10 OR 30%), Method: PREINCUBATION inactive; negative | Test System: AMES SALMONELLA TYPHIMURIUM, Strain/Indicator: TA100, Metabolic Activation: NONE, Method: PREINCUBATION inactive; negative | Test System: AMES SALMONELLA TYPHIMURIUM, Strain/Indicator: TA100, Metabolic Activation: NONE, Method: PREINCUBATION (20 MIN) inactive; negative | Test System: AMES SALMONELLA TYPHIMURIUM, Strain/Indicator: TA100, Metabolic Activation: NONE, Method: STANDARD PLATE inactive; negative | Test System: AMES SALMONELLA TYPHIMURIUM, Strain/Indicator: TA100, Metabolic Activation: RAT, LIVER, S-9, AROCLOR 1254 (10 OR 30%), Method: PREINCUBATION inactive; negative | Test System: AMES SALMONELLA TYPHIMURIUM, Strain/Indicator: TA100, Metabolic Activation: RAT, LIVER, S-9, AROCLOR 1254, Method: STANDARD PLATE inactive; negative | Test System: AMES SALMONELLA TYPHIMURIUM, Strain/Indicator: TA100, Metabolic Activation: RAT, LIVER, S-9, PHENOBARBITAL AND 5,6-BENZOFLAVONE, Method: PREINCUBATION (20 MIN) inactive; negative | Test System: AMES SALMONELLA TYPHIMURIUM, Strain/Indicator: TA102, Metabolic Activation: NONE, Method: PREINCUBATION (20 MIN) inactive; negative | Test System: AMES SALMONELLA TYPHIMURIUM, Strain/Indicator: TA102, Metabolic Activation: RAT, LIVER, S-9, PHENOBARBITAL AND 5,6-BENZOFLAVONE, Method: PREINCUBATION (20 MIN) inactive; negative | Test System: AMES SALMONELLA TYPHIMURIUM, Strain/Indicator: TA104, Metabolic Activation: NONE, Method: PREINCUBATION (20 MIN) inactive; negative | Test System: AMES SALMONELLA TYPHIMURIUM, Strain/Indicator: TA104, Metabolic Activation: RAT, LIVER, S-9, PHENOBARBITAL AND 5,6-BENZOFLAVONE, Method: PREINCUBATION (20 MIN) inactive; negative | Test System: AMES SALMONELLA TYPHIMURIUM, Strain/Indicator: TA1535, Metabolic Activation: HAMSTER, LIVER, S-9, AROCLOR 1254 (10 OR 30%), Method: PREINCUBATION inactive; negative | Test System: AMES SALMONELLA TYPHIMURIUM, Strain/Indicator: TA1535, Metabolic Activation: NONE, Method: PREINCUBATION inactive; negative | Test System: AMES SALMONELLA TYPHIMURIUM, Strain/Indicator: TA1535, Metabolic Activation: NONE, Method: PREINCUBATION (20 MIN) inactive; negative
